Source: patent publication US20200011856A1, “Method for Determining the Effectiveness of Treatment for the Prevention of Heartworm Disease” (priority 2017, published 2020)
Values joined by “and” are separate entries in the source; they are usually repeats but may differ in a detail not shown here. Equal entries are not always repeated.

Tested on: Dirofilaria immitis JYD strain (ivermectin-resistant)
Experiment: Infection of NSG mice with ivermectin-resistant JYD strain D. immitis L3, treatment, recovery and count of worms
Type: in vivo
Settings: for % Rec, Mean: group mean; for % Rec: individual mice
[1] = 7823 1.0 mg/kg Days 1, 15, 30, 50 JYD Di L3 per NSG mouse, recovery Days 40-42, Table 20
[2] = 7823 5.0 mg/kg Days 1, 15, 30, 50 JYD Di L3 per NSG mouse, recovery Days 40-42, Table 20

In the case of `CC(C)C[C@H]1C(=O)O[C@H](C)C(=O)N(C)[C@@H](CC(C)(C)F)C(=O)O[C@H](Cc2ccc(OC(F)(F)F)cc2)C(=O)N(C)[C@@H](CC(C)C)C(=O)O[C@H](C)C(=O)N(C)[C@@H](CC(C)(C)F)C(=O)O[C@H](Cc2ccc(OC(F)(F)F)cc2)C(=O)N1C` [compound 2677], the “% Rec, Mean” value (2677 1 mg/kg Days 1, 15, 30, 50 JYD Di L3 per NSG mouse, recovery Days 41 and 42, Table 18) is reported as 8%, the “% Rec” value (2677 1 mg/kg Days 1, 15, 30, 50 JYD Di L3 per NSG mouse, recovery Days 41 and 42, Table 18, 1 mg/kg) is reported as 6% and 4% (3×) and 2% and 18% and 16% and the “% Red” value (in vivo, 1 mg/kg) is reported as “% Red: 81%”. The “Survival, Mean” value (in vivo, 1 mg/kg) was 4.
For `CC(C)C[C@H]1C(=O)O[C@H](C)C(=O)N(C)[C@@H](CC(C)(C)F)C(=O)O[C@H](Cc2ccc(C(F)(F)F)cc2)C(=O)N(C)[C@@H](CC(C)C)C(=O)O[C@H](C)C(=O)N(C)[C@@H](CC(C)(C)F)C(=O)O[C@H](Cc2ccc(C(F)(F)F)cc2)C(=O)N1C` [compound 3615], the “% Red” value (3615 1 mg/kg Days 1, 15, 30, 50 JYD Di L3 per NSG mouse, Table 18, vs Control) was “% Red: 40%”, the “% Rec, Mean” value (3615 1 mg/kg Days 1, 15, 30, 50 JYD Di L3 per NSG mouse, recovery Days 41 and 42, Table 18) was 26% and the “% Rec” value (3615 1 mg/kg Days 1, 15, 30, 50 JYD Di L3 per NSG mouse, recovery Days 41 and 42, Table 18, 1 mg/kg) was 24% (2×) and 26% and 30% and 28% and 36% and 16%. The “Survival, Mean” value (in vivo, 1 mg/kg) was 13.
`C[C@H]1OC(=O)[C@H](CC(C)(C)C)N(C)C(=O)[C@@H](Cc2ccc(OC(F)(F)F)cc2)OC(=O)[C@H](CC(C)(C)F)N(C)C(=O)[C@@H](C)OC(=O)[C@H](CC(C)(C)C)N(C)C(=O)[C@@H](Cc2ccc(OC(F)(F)F)cc2)OC(=O)[C@H](CC(C)(C)F)N(C)C1=O` [compound 5010] was tested, and the “% Red” value (5010 1 mg/kg Days 1, 15, 30, 50 JYD Di L3 per NSG mouse, Table 18, vs Control) was “% Red: 33%”, the “% Rec, Mean” value (5010 1 mg/kg Days 1, 15, 30, 50 JYD Di L3 per NSG mouse, recovery Days 41 and 42, Table 18) was 29% and the “% Rec” value (5010 1 mg/kg Days 1, 15, 30, 50 JYD Di L3 per NSG mouse, recovery Days 41 and 42, Table 18, 1 mg/kg) was 24% (2×) and 36% and 14% and 34% and 30% and 38%. The “Survival, Mean” value (in vivo, 1 mg/kg) was 14.
With `C[C@H]1OC(=O)[C@H](CC2CC2)N(C)C(=O)[C@@H](Cc2ccc(C(C)(C)C)cc2)OC(=O)[C@H](CC(C)(C)F)N(C)C(=O)[C@@H](C)OC(=O)[C@H](CC2CC2)N(C)C(=O)[C@@H](Cc2ccc(C(C)(C)C)cc2)OC(=O)[C@H](CC(C)(C)F)N(C)C1=O` [compound 7823] the “% Red” value (7823 0.1 mg/kg Days 1, 15, 30, 50 JYD Di L3 per NSG mouse, Table 20, vs Control) was “% Red: 83%”, the “% Rec, Mean” value (7823 0.1 mg/kg Days 1, 15, 30, 50 JYD Di L3 per NSG mouse, recovery Days 40-42, Table 20) was 4% and the “% Rec” value (7823 0.1 mg/kg Days 1, 15, 30, 50 JYD Di L3 per NSG mouse, recovery Days 40-42, Table 20, 0.1 mg/kg) was 6% (2×) and 0% and 8% and 2%. The “% Red” value (7823 0.25 mg/kg Days 1, 15, 30, 50 JYD Di L3 per NSG mouse, Table 20, vs Control) was “% Red: 91%”, the “% Rec, Mean” value (7823 0.25 mg/kg Days 1, 15, 30, 50 JYD Di L3 per NSG mouse, recovery Days 40-42, Table 20) was 2% and the “% Rec” value (7823 0.25 mg/kg Days 1, 15, 30, 50 JYD Di L3 per NSG mouse, recovery Days 40-42, Table 20, 0.25 mg/kg) was 4% (2×) and 0% (3×). The “% Red” value (7823 0.5 mg/kg Days 1, 15, 30, 50 JYD Di L3 per NSG mouse, Table 20, vs Control) was “% Red: 87%”, the “% Rec, Mean” value (7823 0.5 mg/kg Days 1, 15, 30, 50 JYD Di L3 per NSG mouse, recovery Days 40-42, Table 20) was 3% and the “% Rec” value (7823 0.5 mg/kg Days 1, 15, 30, 50 JYD Di L3 per NSG mouse, recovery Days 40-42, Table 20, 0.5 mg/kg) was 0% (2×) and 8% and 4% and 2%. The “% Red” value (7823 1 mg/kg Days 1, 15, 30, 50 JYD Di L3 per NSG mouse, Table 18, vs Control) was “% Red: 98%”, the “% Red” value (7823 1.0 mg/kg Days 1, 15, 30, 50 JYD Di L3 per NSG mouse, Table 20, vs Control) was “% Red: 100%” and the “% Rec, Mean” value [1] was 0%. For the same compound, the “% Rec” value [1] was 0%, the “% Rec, Mean” value (7823 1 mg/kg Days 1, 15, 30, 50 JYD Di L3 per NSG mouse, recovery Days 41 and 42, Table 18) was 1% and the “% Rec” value (7823 1 mg/kg Days 1, 15, 30, 50 JYD Di L3 per NSG mouse, recovery Days 41 and 42, Table 18, 1 mg/kg) was 2% (2×) and 0% (4×) and 4%. The “% Red” value (7823 5.0 mg/kg Days 1, 15, 30, 50 JYD Di L3 per NSG mouse, Table 20, vs Control) was “% Red: 100%”, the “% Rec, Mean” value [2] was 0% and the “% Rec” value [2] was 0%. For the same compound, the “Survival, Mean” value (in vivo, 0.1 mg/kg) was 2, the “Survival, Mean” value (in vivo, 0.25 mg/kg) was 1 and the “Survival, Mean” value (in vivo, 0.5 mg/kg) was 1. The Survival (in vivo, 5 mg/kg) was 0 and the “Survival, Mean” value (in vivo, 5 mg/kg) was 0.
In the case of `CC(C)C[C@H]1C(=O)O[C@H](C)C(=O)N(C)[C@@H](CC(C)(C)F)C(=O)O[C@H](Cc2ccc(C3CCOCC3)cc2)C(=O)N(C)[C@@H](CC(C)C)C(=O)O[C@H](C)C(=O)N(C)[C@@H](CC(C)(C)F)C(=O)O[C@H](Cc2ccc(C3CCOCC3)cc2)C(=O)N1C` [compound 8800], the “% Red” value (8800 1 mg/kg Days 1, 15, 30, 50 JYD Di L3 per NSG mouse, Table 18, vs Control) is reported as “% Red: 67%”, the “% Rec, Mean” value (8800 1 mg/kg Days 1, 15, 30, 50 JYD Di L3 per NSG mouse, recovery Days 41 and 42, Table 18) is reported as 14% and the “% Rec” value (8800 1 mg/kg Days 1, 15, 30, 50 JYD Di L3 per NSG mouse, recovery Days 41 and 42, Table 18, 1 mg/kg) is reported as 12% (2×) and 16% and 8% and 4% and 26% and 18%. For the same compound, the “Survival, Mean” value (in vivo, 1 mg/kg) was 7.
